According to patent US20260265331A1, “GLYCOSYLATED NEUROPEPTIDE DERIVATIVE INCLUDING NEUROPEPTIDE SEQUENCE AND SUGAR CHAIN, PHARMACEUTICAL COMPOSITION, INTRANASAL/NASAL DROP FORMULATION, AND USE OF GLYCOSYLATED NEUROPEPTIDE DERIVATIVE” (TOKYO UNIVERSITY OF SCIENCE FOUNDATION, priority 2022, published 2026):
Where no end group is shown, it is not given here. The star is where a group is joined. Cam = NC(=O)C*

Key:
[1] = Quantification by GLP-2 ELISA of amount of migration to brain; assay type: in vivo, mice; settings: 6.0 nmol/mouse intranasal, brain isolated 20 minutes after administration; FIG. 5
Method: Mice were intranasally administered with 16% DMSO or the GLP-2 derivatives (6.0 nmol/mouse). The brain was isolated 20 minutes after the administration, and homogenized with BioMasher II (Nippi, Tokyo, Japan). A sample was prepared by performing centrifugal separation by 1000×g (4° C.) for 15 minutes and collecting a supernatant. The amount of the GLP-2 derivative in the sample was quantified using a GLP-2 ELISA kit. Specifically, a cleaning process including filling each well of a measurement plate with a cleaning fluid (350 μL) and suctioning the cleaning fluid with a pipette was performed three times. […] Finally, an enzyme reaction stop solution (100 μL) was added and an absorbance at 490 nm was measured with ARVO (PerkinElmer Japan Co., Ltd., Kanagawa, Japan) to calculate the concentration of a GLP-2 derivative.
Mice were intranasally administered with the PAS-CPP-GLP-2 derivative prepared in Example 1 (C-terminus 11-sugar, no linker, C11), the PAS-CPP-GLP-2 derivative (N-terminus 11-sugar, no linker, N11), and the PAS-CPP-GLP-2 derivative glycosylated via a C6 alkylene group (N-terminus 11-sugar, with C6 linker, C6), respectively (6.0 nmol/mouse). […] The amount of the GLP-2 derivative in the sample was quantified using a GLP-2 ELISA kit. […]

[2] = Distribution in brain by immunostaining of frozen brain sections (Examples 6 and 7); assay type: in vivo, mice; settings: Example 7, 3.0 nmol/mouse intranasal
Method: The brain was isolated 5 minutes after the administration and 20 minutes after the administration, respectively.
The brain isolated 5 minutes after the intranasal administration was subjected to infiltration fixation with 4% PFA at 4° C. overnight without performing perfusion fixation. The isolation of the brain 20 minutes after the intranasal administration was performed by the following process.
The mouse was fixed in a supine position under anesthesia with isoflurane, and the chest was incised. The tissue was fixed by perfusing with PBS, and subsequently with 4% PFA, from the left chamber of the heart throughout the whole body. The isolated brain was preserved in a 4% PFA solution. On the day following the isolation, the brain samples were substituted with 20% sucrose overnight (4° C.), and further with 30% sucrose overnight (4° C.). Thereafter, a frozen section with a thickness of 30 μm was prepared using a cryostat (CM3050S; Leica Microsystems).
The frozen brain section was mounted on a slide glass, and a circle was drawn around the section with a liquid blocker. A blocking buffer was added inside the circle and the section was subjected to blocking for 30 minutes at room temperature. Thereafter, the section was added with a first antibody solution including a GLP-2 polyclonal antibody, diluted by 200 times with a blocking solution, and subjected to incubation for 1 hour at room temperature. After rinsing three times with 1×PBS, the section was added with a second antibody solution including Alexa Fluor (trademark) 568 Goat Anti-Mouse IgG H&L, diluted by 500 times with a BSA/PBS solution, and subjected to incubation for 1 hour at room temperature. After rinsing three times with 1×PBS, the section was mounted with ProLong (trademark) Diamond Antifade Mountant. After confirming the solidification of the mountant, the section was subjected to fluorescent observation and imaging with a confocal laser microscope (TCS SP8; Leica) and a software (Leica Application Suite X Software; Leica).
Mice were intranasally administered with 16% DMSO or the GLP-2 derivatives (3.0 nmol/mouse), and the brain was isolated 5 minutes, 10 minutes, 20 minutes and 60 minutes after the administration.
The brain isolated 5 minutes or 10 minutes after the intranasal administration was subjected to infiltration fixation with 4% PFA at 4° C. overnight without performing perfusion fixation. The isolation of the brain 20 minutes or 60 minutes after the intranasal administration was performed by the following process.
Sections of the olfactory bulb (OB) including olfactory nerves, pons/principal sensory nucleus of trigeminal nerve (Pr5), hippocampus (HIP) and dorsomedial nucleus of the hypothalamus (DMH) were prepared by referring to the Nissil staining images and the brain map (Paxinos and Franklin, 2003).
The frozen brain section was mounted on a slide glass, and a circle was drawn around the section with a liquid blocker. A blocking buffer was added inside the circle and the section was subjected to blocking for 30 minutes at room temperature. Thereafter, the section was added with a first antibody solution including a GLP-2 polyclonal antibody, diluted by 200 times with a blocking solution, and subjected to incubation for 1 hour at room temperature. […]

FFLIPKGRRRRRRRRGGHADGSFSDEMNTILDNLAARDFINWLIQTKITDC(Cam)-OH [PAS-CPP-GLP-2 derivative (no sugar)]
amount of GLP-2 derivative in brain (ELISA) [1]: below the detection limit
fluorescence at OB and Pr5 ([2]; 5 minutes, FIG. 7A): a significant degree of fluorescence was observed
fluorescence at HIP and DMH ([2]; 20 minutes, FIG. 7B): intense fluorescence was observed
fluorescence at OB ([2]; 20 minutes, FIG. 7B): a significant degree of fluorescence was observed at OB
fluorescence intensity at OB or Pr5 relative to 5 minutes ([2]; 20 minutes, FIG. 7B): weaker than the fluorescence observed 5 minutes after the administration
fluorescence at HIP and DMH ([2]; 60 minutes, FIG. 7C): fluorescence was not observed
